From patent US20210221832A1, “SUBSTITUTED PYRIDOINDOLES FOR THE TREATMENT AND PROPHYLAXIS OF BACTERIAL INFECTION” (Hoffmann-La Roche Inc., priority 2018, published 2021)
Converted amounts (≈) assume the structure as drawn.

Key:
[1] = Plasma stability assay in human plasma; type: in vitro ADME; conditions: 10 μM prodrug, 37° C., prodrug remaining at 30 min compared to 0 min
Description: (§1) The degradation of prodrug and formation of active drug of present invention were monitored by current plasma stability assay. The assay is conducted in human plasma (purchased from Bioreclamation, Lot No. BRH1380385) or mouse plasma (prepared in-house using CD-1 mouse purchased from Vital River). Plasma is spiked with the test prodrug (10 μM final concentration) dissolved in DMSO (or water) and incubated at 37° C. Aliquots are removed at 0, 5, 15 and 30 minutes of incubation time, quenched with appropriate volume of internal standard solution (I.S., 0.2 μM of tolbutamide, prepared in ACN and water (1:1, v/v)), according to the mass spectrometer intensity of both analytes. Samples are centrifuged, the supernatant are removed and analyzed by LC-MS/MS. The degradation of prodrug was illustrated by calculation of percent remaining of prodrug at 30 min compared to that at 0 min (Table 2).

[2] = Plasma stability assay in mouse plasma; type: in vitro ADME, CD-1 mouse; conditions: 10 μM prodrug, 37° C., prodrug remaining at 30 min compared to 0 min
Description: as §1

[3] = Lyophilisation Solubility Assay (LYSA); type: physicochemical; conditions: aqueous buffer, thermodynamic from solid; 0.05 M phosphate buffer, pH 6.5
Description: The solubility of compounds of present invention was assessed by LYSA assay. Samples were prepared in duplicate from 10 mM DMSO stock solutions (20 μL) diluted in 30 μL pure DMSO. After evaporation of DMSO with a centrifugal vacuum evaporator, the residue was dissolved in 0.05 M phosphate buffer (150 μL, pH 6.5), which was stirred for one hour and shook for two hours. After one night, the solution was filtered using a microtiter filter plate. Then the filtrate and its 1/10 dilution were analyzed by HPLC-UV. In addition, a four-point calibration curve was prepared from the 10 mM stock solutions and used for the solubility determination of the compounds.

[4] = system: K. pneumoniae (ATCC10031); test: 50% Growth Inhibitory Concentration (IC50) Determination Assay, K. pneumoniae; type: cell-based; conditions: Klebsiella pneumoniae, growth inhibition, Iso-Sensitest broth, OD 600 nm over 16 h
Description: (§2) The in vitro antimicrobial activity of the compounds against S. aureus (ATCC29213), K. pneumoniae (ATCC10031), and A. baumannii (ATCC17978), was determined according to the following procedure: The assay used a 10-points Iso-Sensitest broth medium to measure quantitatively the in vitro activity of the compounds against S. aureus ATCC29213, K. pneumoniae ATCC 10031, and A. baumannii ATCC 17978. Stock compounds in DMSO were serially two-fold diluted (range from 50 to 0.097 μM final concentration) in 384 wells microtiter plates and inoculated with 49 μL the bacterial suspension in Iso-Sensitest broth medium to have a final cell concentration of 5×10^5 CFU/mL in a final volume/well of 50 μL/well. Microtiter plates were incubated at 35±2° C. Bacterial cell growth was determined with the measurement of optical density at λ=600 nm each 20 minutes over a time course of 16 h. Growth inhibition was calculated during the logarithmic growth of the bacterial cells with determination of the concentration inhibiting 50% (IC50) of the growth. The parent compounds of the present invention were tested for their concentration inhibiting 50% (IC50). The data of IC50 over S. aureus (ATCC29213), K. pneumoniae (ATCC10031), and A. baumannii (ATCC17978) are illustrated in Table 6.

[5] = system: S. aureus (ATCC29213); test: 50% Growth Inhibitory Concentration (IC50) Determination Assay, S. aureus; type: cell-based; conditions: Staphylococcus aureus, growth inhibition, Iso-Sensitest broth, OD 600 nm over 16 h
Description: as §2

[6] = system: A. baumannii (ATCC17978); test: 50% Growth Inhibitory Concentration (IC50) Determination Assay, A. baumannii; type: cell-based; conditions: Acinetobacter baumannii, growth inhibition, Iso-Sensitest broth, OD 600 nm over 16 h
Description: as §2

| SMILES | Percent Remaining (%) H [1] [%] | Percent Remaining (%) M [2] [%] | solubility [3] [µg/mL] | IC50 [4] [nM] | IC50 [5] [nM] | IC50 [6] [nM] |
| --- | --- | --- | --- | --- | --- | --- |
| CNc1cc(F)c(C#N)c2c1[nH]c1ncc(-c3cnc4c(c3)c(=O)c(C(=O)O)cn4C)c(N3CC[C@H]4CN(C)C[C@H]43)c12 [Example 1.03D, 6-[5-cyano-6-fluoro-8-(methylamino)-4-[(3aS,6aS)-5-methyl-2,3,3a,4,6,6a-hexahydropyrrolo[2,3-c]pyrrol-1-yl]-9H-pyrido[2,3-b]indol-3-yl]-1-methyl-4-oxo-1,8-naphthyridine-3-carboxylic acid] | – | – | 194 (≈ 342 µM) | < 98 | < 98 | 45 |
| CNc1cc(F)c(F)c2c1[nH]c1ncc(-c3cnc4c(c3)c(=O)c(C(=O)O)cn4C)c(N3CC[C@H]4CN(C)C[C@H]43)c12 [Example 1.26E, 6-[5,6-difluoro-8-(methylamino)-4-[(3aS,6aS)-5-methyl-2,3,3a,4,6,6a-hexahydropyrrolo[2,3-c]pyrrol-1-yl]-9H-pyrido[2,3-b]indol-3-yl]-1-methyl-4-oxo-1,8-naphthyridine-3-carboxylic acid] | – | – | 137 (≈ 245 µM) | < 98 | < 98 | 39 |
| CNc1cc(F)c(F)c2c1[nH]c1ncc(-c3ccc4ccc(C(=O)O)c(=O)n4c3)c(N3CC[C@H]4CN(C)C[C@H]43)c12 [Example 1.34D, 7-[5,6-difluoro-8-(methylamino)-4-[(3aS,6aS)-5-methyl-2,3,3a,4,6,6a-hexahydropyrrolo[2,3-c]pyrrol-1-yl]-9H-pyrido[2,3-b]indol-3-yl]-4-oxo-quinolizine-3-carboxylic acid] | – | – | 54 (≈ 99.2 µM) | < 98 | < 98 | < 98 |

The next lines start with the values.

| Percent Remaining (%) H [1] [%] | Percent Remaining (%) M [2] [%] | solubility [3] [µg/mL] | IC50 [4] [nM] | IC50 [5] [nM] | IC50 [6] [nM] | SMILES |
| --- | --- | --- | --- | --- | --- | --- |
| 88.2 | 70.2 | > 895 | – | – | – | CN1C[C@@H]2CCN(c3c(-c4cnc5c(c4)c(=O)c(C(=O)O)cn5C)cnc4[nH]c5c(N(C)C(=O)OCOC(=O)/C=C/C(=O)O)cc(F)c(C#N)c5c34)[C@@H]2C1 [Example 1.02, 6-[5-Cyano-6-fluoro-8-[methyl-[[(E)-3-carboxyprop-2-enoyl]oxymethoxycarbonyl]amino]-4-[(3aS,6aS)-5-methyl-2,3,3a,4,6,6a-hexahydropyrrolo[2,3-c]pyrrol-1-yl]-9H-pyrido[2,3-b]indol-3-yl]-1-methyl-4-oxo-1,8-naphthyridine-3-carboxylic acid] |
| 95.9 | 79.1 | > 950 | – | – | – | CNc1cc(F)c(C#N)c2c3c(N4CC[C@H]5CN(C)C[C@H]54)c(-c4cnc5c(c4)c(=O)c(C(=O)O)cn5C)cn(COP(=O)(O)O)c-3nc12 [Example 1.04, 6-[5-Cyano-6-fluoro-8-(methylamino)-1-(phosphonooxymethyl)-4-[(3aS,6aS)-5-methyl-2,3,3a,4,6,6a-hexahydropyrrolo[2,3-c]pyrrol-1-yl]pyrido[2,3-b]indol-3-yl]-1-methyl-4-oxo-1,8-naphthyridine-3-carboxylic acid] |
| 22.3 | 1.3 | 480 (≈ 676 µM) | – | – | – | CNc1cc(F)c(C#N)c2c1[nH]c1ncc(-c3cnc4c(c3)c(=O)c(C(=O)OCCOC(=O)[C@@H](N)C(C)C)cn4C)c(N3CC[C@H]4CN(C)C[C@H]43)c12 [Example 1.08, 2-[(2S)-2-Amino-3-methyl-butanoyl]oxyethyl 6-[5-cyano-6-fluoro-8-(methylamino)-4-[(3aS,6aS)-5-methyl-2,3,3a,4,6,6a-hexahydropyrrolo[2,3-c]pyrrol-1-yl]-9H-pyrido[2,3-b]indol-3-yl]-1-methyl-4-oxo-1,8-naphthyridine-3-carboxylate] |
| 88.7 | 56.0 | – | – | – | – | CN1C[C@H]2CCN(c3c(-c4cnc5c(c4)c(=O)c(C(=O)O)cn5C)cnc4[nH]c5c(N(C)C(=O)OCOC(=O)/C=C/C(=O)O)cc(F)c(F)c5c34)[C@H]2C1 [Example 1.21, 6-[5,6-Difluoro-8-[methyl-[[(E)-3-carboxyprop-2-enoyl]oxymethoxycarbonyl]amino]-4-[(3aR,6aR)-5-methyl-2,3,3a,4,6,6a-hexahydropyrrolo[2,3-c]pyrrol-1-yl]-9H-pyrido[2,3-b]indol-3-yl]-1-methyl-4-oxo-1,8-naphthyridine-3-carboxylic acid] |
| 98.4 | 0.1 | – | – | – | – | CNc1cc(F)c(F)c2c1[nH]c1ncc(-c3ccc4ccc(C(=O)OC(C)OC(=O)OC(C)C)c(=O)n4c3)c(N3CC[C@H]4CN(C)C[C@H]43)c12 (stereo partly drawn) [Example 1.39, 1-Isopropoxycarbonyloxyethyl 7-[5,6-difluoro-8-(methylamino)-4-[(3aS,6aS)-5-methyl-2,3,3a,4,6,6a-hexahydropyrrolo[2,3-c]pyrrol-1-yl]-9H-pyrido[2,3-b]indol-3-yl]-4-oxo-quinolizine-3-carboxylate] |
